# Assay results from patent US20170369444A1, “INHIBITORS OF HISTONE DEMETHYLASES” (Gilead Sciences, Inc., priority 2014, published 2017).
# Legend:
# KDM5B (PLU-1) = target: T1, KDM5B (PLU-1) (Homo sapiens, UniProt Q9UGL1); test: Histone lysine demethylase AlphaLISA assay, KDM5B; type: biochemical; conditions: in vitro enzyme, read-out: KDM5B IC50 (HDME Inhibition)
# T1 construct: 1-809; host or cells: E. coli
# T1 sequence (Q9UGL1 1-809): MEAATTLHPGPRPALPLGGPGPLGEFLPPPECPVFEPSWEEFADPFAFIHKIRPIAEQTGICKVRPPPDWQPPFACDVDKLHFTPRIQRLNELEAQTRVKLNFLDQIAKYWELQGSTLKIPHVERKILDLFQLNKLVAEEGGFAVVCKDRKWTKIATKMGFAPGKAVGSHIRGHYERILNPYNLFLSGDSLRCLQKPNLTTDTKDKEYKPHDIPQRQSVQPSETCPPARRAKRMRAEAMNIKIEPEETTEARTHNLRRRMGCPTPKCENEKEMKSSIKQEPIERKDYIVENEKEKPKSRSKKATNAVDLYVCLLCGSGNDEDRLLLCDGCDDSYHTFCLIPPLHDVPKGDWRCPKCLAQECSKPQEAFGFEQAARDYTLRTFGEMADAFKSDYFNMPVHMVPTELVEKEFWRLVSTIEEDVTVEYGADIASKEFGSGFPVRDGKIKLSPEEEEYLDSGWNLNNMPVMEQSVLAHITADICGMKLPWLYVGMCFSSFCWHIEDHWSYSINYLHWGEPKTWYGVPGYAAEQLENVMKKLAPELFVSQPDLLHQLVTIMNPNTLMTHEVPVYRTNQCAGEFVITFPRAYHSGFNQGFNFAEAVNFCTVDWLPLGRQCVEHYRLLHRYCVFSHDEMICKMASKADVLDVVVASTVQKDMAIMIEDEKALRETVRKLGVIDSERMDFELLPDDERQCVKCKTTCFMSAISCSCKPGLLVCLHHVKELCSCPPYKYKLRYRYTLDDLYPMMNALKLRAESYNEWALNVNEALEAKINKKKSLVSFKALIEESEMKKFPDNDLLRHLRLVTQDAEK
# PHF8 (KDM7) = PHF8 (KDM7) (Homo sapiens, UniProt Q9UPP1); test: Histone lysine demethylase AlphaLISA assay, PHF8; type: biochemical; conditions: in vitro enzyme, read-out: PHF8 IC50 (HDME Inhibition)
# KDM2B (FBXL10) = target: T2, KDM2B (FBXL10) (Homo sapiens, UniProt Q8NHM5); test: Histone lysine demethylase AlphaLISA assay, KDM2B; type: biochemical; conditions: in vitro enzyme, read-out: KDM2B IC50 (HDME Inhibition)
# T2 construct: 1-650; purchased BPS Bioscience, US; host or cells: Bac (baculovirus/insect cells)
# T2 sequence (Q8NHM5 1-650): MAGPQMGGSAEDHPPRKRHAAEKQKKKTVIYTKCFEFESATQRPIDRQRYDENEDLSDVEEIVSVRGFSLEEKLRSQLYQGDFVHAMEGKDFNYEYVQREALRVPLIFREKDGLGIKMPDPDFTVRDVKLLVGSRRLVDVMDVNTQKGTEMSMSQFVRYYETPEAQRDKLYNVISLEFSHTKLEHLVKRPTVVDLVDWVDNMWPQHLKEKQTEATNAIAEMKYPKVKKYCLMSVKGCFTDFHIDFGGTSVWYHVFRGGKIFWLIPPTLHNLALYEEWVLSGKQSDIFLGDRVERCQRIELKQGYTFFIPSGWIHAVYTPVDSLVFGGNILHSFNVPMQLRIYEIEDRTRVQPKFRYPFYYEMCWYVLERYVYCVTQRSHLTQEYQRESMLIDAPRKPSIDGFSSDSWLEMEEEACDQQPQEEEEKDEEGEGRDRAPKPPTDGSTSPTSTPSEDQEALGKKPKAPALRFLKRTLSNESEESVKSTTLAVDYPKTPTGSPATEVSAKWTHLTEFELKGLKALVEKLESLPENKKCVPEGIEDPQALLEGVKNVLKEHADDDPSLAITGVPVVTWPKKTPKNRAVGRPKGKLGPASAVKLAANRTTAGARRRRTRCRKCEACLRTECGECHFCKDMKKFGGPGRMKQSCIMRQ
# KDM4C (JMJD2C) = target: T3, KDM4C (JMJD2C) (Homo sapiens, UniProt Q9H3R0); test: Histone lysine demethylase AlphaLISA assay, KDM4C; type: biochemical; conditions: in vitro enzyme, read-out: KDM4C IC50 (HDME Inhibition)
# T3 construct: 1-349; host or cells: E. coli
# T3 sequence (Q9H3R0 1-349): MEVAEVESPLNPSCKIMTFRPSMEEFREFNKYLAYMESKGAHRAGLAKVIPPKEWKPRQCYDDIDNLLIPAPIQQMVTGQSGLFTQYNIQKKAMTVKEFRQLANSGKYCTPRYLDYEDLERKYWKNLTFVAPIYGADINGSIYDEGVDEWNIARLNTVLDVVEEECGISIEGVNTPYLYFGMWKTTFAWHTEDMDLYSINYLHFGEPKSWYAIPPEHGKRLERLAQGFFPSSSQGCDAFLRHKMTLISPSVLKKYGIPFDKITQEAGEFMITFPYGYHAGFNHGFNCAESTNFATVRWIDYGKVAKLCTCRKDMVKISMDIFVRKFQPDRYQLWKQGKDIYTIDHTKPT
# KDM6A (UTX) = target: T4, KDM6A (UTX) (Homo sapiens, UniProt O15550); test: Histone lysine demethylase AlphaLISA assay, KDM6A; type: biochemical; conditions: in vitro enzyme, read-out: KDM6A IC50 (HDME Inhibition)
# T4 construct: 919-1401; host or cells: E. coli
# [1] = test system: H3K4me3 mark in U2OS cells; test: Histone lysine demethylase immunofluorescence assay, non-transfected U2OS cells; type: cell-based; conditions: Homo sapiens, 20 hours incubation, read-out: IC50 value, staining of the H3K4me3 mark in cells
# Method: Generally, the cells are incubated with compounds, washed and incubated with a methylation specific antibody before imaging. IC50 values are determined by measurement of the H3K4me3 staining.
# Histone Lysine Demethylase Immunofluorescence Assays for IC50 value Determination, non-transfected cells
# U2OS cells are harvested and seeded into multi well plates into media containing compound. The media is DMEM containing 5% FBS and pen/strep. 20 hours after incubation of cells with compounds, the cells are washed once in PBS, harvested by fixation with formaldehyde 4% aqueous solution, and washed in PBS. Subsequently, the cells are permeabilized in PBS with 0.2% Triton X-100. Blocking is performed in PBS with 0.2% Triton X-100 and 5% FBS. The cells are incubated with αH3K4me3 primary antibody (Cell Signaling, #9751S) in blocking solution over night at 4° C. After incubation with primary antibody, the cells are washed with PBS, incubated with secondary antibody (Alexa fluor 594 goat anti rabbit IgG, Invitrogen, A11012) and Hoechst, (Sigma, 33342) in blocking solution, and washed again with PBS. Finally, PBS is added and high throughput imaging and analysis are performed by an IN Cell Analyzer 1000 (GE Healthcare). IC50 values are determined based on an average measure of the staining of the H3K4me3 mark in cells.
# Sequence of PHF8 (KDM7) (Q9UPP1 whole entry): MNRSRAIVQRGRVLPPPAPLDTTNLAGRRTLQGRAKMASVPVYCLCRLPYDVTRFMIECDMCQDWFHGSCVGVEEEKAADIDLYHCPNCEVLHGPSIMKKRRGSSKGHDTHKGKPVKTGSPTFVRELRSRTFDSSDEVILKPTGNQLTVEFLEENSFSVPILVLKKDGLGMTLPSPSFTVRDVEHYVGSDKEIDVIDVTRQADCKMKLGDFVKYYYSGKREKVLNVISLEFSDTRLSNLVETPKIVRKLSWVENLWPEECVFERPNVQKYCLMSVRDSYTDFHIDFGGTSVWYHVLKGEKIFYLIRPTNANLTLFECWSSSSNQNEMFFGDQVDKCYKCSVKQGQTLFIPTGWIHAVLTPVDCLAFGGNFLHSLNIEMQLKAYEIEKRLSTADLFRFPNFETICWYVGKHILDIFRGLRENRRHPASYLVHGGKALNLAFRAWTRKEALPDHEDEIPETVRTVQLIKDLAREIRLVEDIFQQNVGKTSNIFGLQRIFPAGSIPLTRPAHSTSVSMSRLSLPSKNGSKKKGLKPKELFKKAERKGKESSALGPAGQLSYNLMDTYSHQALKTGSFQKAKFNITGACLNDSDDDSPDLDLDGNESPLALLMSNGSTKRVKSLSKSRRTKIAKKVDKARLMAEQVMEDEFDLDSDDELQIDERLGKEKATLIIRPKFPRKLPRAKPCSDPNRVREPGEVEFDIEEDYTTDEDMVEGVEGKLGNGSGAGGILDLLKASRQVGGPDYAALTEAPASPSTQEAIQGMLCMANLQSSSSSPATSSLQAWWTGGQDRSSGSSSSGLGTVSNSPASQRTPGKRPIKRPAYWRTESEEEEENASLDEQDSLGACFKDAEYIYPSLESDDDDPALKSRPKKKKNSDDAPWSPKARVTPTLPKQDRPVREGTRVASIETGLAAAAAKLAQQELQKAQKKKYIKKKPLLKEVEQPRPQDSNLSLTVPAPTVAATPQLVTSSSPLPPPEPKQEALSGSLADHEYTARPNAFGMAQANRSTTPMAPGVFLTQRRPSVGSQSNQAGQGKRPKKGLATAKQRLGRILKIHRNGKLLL
# T4 sequence (O15550 919-1401): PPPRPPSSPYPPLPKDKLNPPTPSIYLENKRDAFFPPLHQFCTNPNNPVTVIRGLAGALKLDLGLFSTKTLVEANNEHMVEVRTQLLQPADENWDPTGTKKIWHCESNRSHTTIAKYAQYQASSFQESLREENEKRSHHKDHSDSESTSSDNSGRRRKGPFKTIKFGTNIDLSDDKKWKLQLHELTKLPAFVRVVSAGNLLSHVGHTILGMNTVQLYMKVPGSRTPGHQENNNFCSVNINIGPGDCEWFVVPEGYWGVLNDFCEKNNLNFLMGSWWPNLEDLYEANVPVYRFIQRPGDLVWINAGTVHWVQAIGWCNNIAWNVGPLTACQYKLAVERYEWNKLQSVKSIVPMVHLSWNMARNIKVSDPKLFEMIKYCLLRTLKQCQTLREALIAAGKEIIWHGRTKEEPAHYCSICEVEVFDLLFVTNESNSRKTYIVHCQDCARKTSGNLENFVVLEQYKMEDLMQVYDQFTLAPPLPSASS
Compound,IC50 (KDM5B (PLU-1)),IC50 (PHF8 (KDM7)),IC50 (KDM2B (FBXL10)),IC50 (KDM4C (JMJD2C)),IC50 (KDM6A (UTX)),IC50 [1]
"C[C@H](c1ccccc1)N1CCC[C@H](CNCc2cc(C(=O)O)ccn2)C1=O [Compound 2, 2-[({[(3R)-2-oxo-1-[(1R)-1-phenylethyl]piperidin-3-yl]methyl}amino)methyl]pyridine-4-carboxylic acid]",< 0.25 µM,0.25 to 2.5 µM,< 0.25 µM,< 0.25 µM,> 2.5 µM,–
"C[C@H](c1ccccc1)N1CCC[C@@H](CNCc2cc(C(=O)O)ccn2)C1=O [Compound 14, 2-[({[(3S)-2-oxo-1-[(1R)-1-phenylethyl]piperidin-3-yl]methyl}amino)methyl]pyridine-4-carboxylic acid]",< 0.25 µM,0.25 to 2.5 µM,0.25 to 2.5 µM,0.25 to 2.5 µM,> 2.5 µM,–
"C[C@H](c1ccccc1)N1CC[C@@H](CNCc2cc(C(=O)O)ccn2)C1=O [Compound 17, 2-[({[(3S)-2-oxo-1-[(1R)-1-phenylethyl]pyrrolidin-3-yl]methyl}amino)methyl]pyridine-4-carboxylic acid]",< 0.25 µM,0.25 to 2.5 µM,< 0.25 µM,0.25 to 2.5 µM,> 2.5 µM,–
"NC(=O)CCN(CC(=O)N1CCCCC1)Cc1cc(C(=O)O)ccn1 [Compound 34, 2-{[(2-carbamoylethyl)[2-oxo-2-(piperidin-1-yl)ethyl]amino]methyl} pyridine-4-carboxylic acid]",< 0.25 µM,0.25 to 2.5 µM,0.25 to 2.5 µM,0.25 to 2.5 µM,> 2.5 µM,–
"C=CCN(CC=C)C(=O)[C@@H](CCS(C)(=O)=O)NCc1cc(C(=O)O)ccn1 [Compound 37, 2-({[(1R)-1-[bis(prop-2-en-1-yl)carbamoyl]-3-methanesulfonylpropyl]amino}methyl)pyridine-4-carboxylic acid]",0.25 to 2.5 µM,< 0.25 µM,< 0.25 µM,> 2.5 µM,> 2.5 µM,–
"CCN1CCC(CNCc2cc(C(=O)O)ccn2)C1=O (stereo not shown) [Compound 39, 2-({[(1-ethyl-2-oxopyrrolidin-3-yl)methyl]amino}methyl)pyridine-4-carboxylic acid]",< 0.25 µM,0.25 to 2.5 µM,< 0.25 µM,0.25 to 2.5 µM,> 2.5 µM,–
"Cc1cn2c(n1)CCN(Cc1cc(C(=O)O)ccn1)CC2 [Compound 69, 2-({2-methyl-5H,6H,7H,8H,9H-imidazo[1,2-d][1,4]diazepin-7-yl}methyl)pyridine-4-carboxylic acid]",< 0.25 µM,0.25 to 2.5 µM,> 2.5 µM,0.25 to 2.5 µM,> 2.5 µM,–
"COc1ccc([C@@H](C)N2CCC[C@@H](CNCc3cc(C(=O)O)ccn3)C2=O)cc1 [Compound 80, 2-[({[(3S)-1-[(1R)-1-(4-methoxyphenyl)ethyl]-2-oxopiperidin-3-yl]methyl}amino)methyl]pyridine-4-carboxylic acid]",< 0.25 µM,0.25 to 2.5 µM,< 0.25 µM,0.25 to 2.5 µM,> 2.5 µM,–
"COc1ccc([C@@H](C)N2CCC[C@H](CNCc3cc(C(=O)O)ccn3)C2=O)cc1 [Compound 81, 2-[({[(3R)-1-[(1R)-1-(4-methoxyphenyl)ethyl]-2-oxopiperidin-3-yl]methyl}amino)methyl]pyridine-4-carboxylic acid]",< 0.25 µM,0.25 to 2.5 µM,< 0.25 µM,0.25 to 2.5 µM,> 2.5 µM,–
"O=C(N1CC2(CC2)COC1c1ccnc(CN2CCCn3ccnc3C2)c1)C(F)(F)F (stereo not shown) [Compound 108, 2,2,2-trifluoro-1-[6-(2-{5H,6H,7H,8H,9H-imidazo[1,2-a][1,4]diazepin-8-ylmethyl}pyridin-4-yl)-5-oxa-7-azaspiro[2.5]octan-7-yl]ethan-1-one]",< 0.25 µM,–,0.25 to 2.5 µM,0.25 to 2.5 µM,–,< 2.5 µM
